Consider 4 compounds from patent US11073509B2, “Assays and methods for determining the responsiveness of an individual subject to a therapeutic agent” (Celcuity Inc., priority 2013, dated 2021).

SMILES strings stand for the structures. Where two headings read alike, the source gives them in different places.

In experiment [1] the test system is patient breast cancer cell sample. Put plainly: CELx Pathway Shutdown single drug test (Example 4), impedance biosensor CReMS. The class given is cell-based, human. Particulars: one patient breast cancer cell sample expected to be a responder. The procedure:
The physiologic change of the cells and drugs tested was measured with an impedance biosensor CReMS and the summary output from the CReMS is recorded in FIG. 4.
Cells: Cells from Patients B1, B2, B3, B4, B5, B6, B7, C1, C2, L1, and L2 were utilized and handled in the same manner as described in Example 1.
In those experiments involving a combination of drugs, the procedures described in Example 3 were utilized. The list of patient cells and the drug tested with the cells is characterized in FIG. 4.

In experiment [2] the test system is Patient C2 colon cancer cells. Put plainly: CELx Combination test, impedance biosensor CReMS. The class given is cell-based, human. The settings on record: Patient C2 cells (printed Patient 2), single drug.
Protocol: Cells: Colon cancer cells from Patients C1 and C2 were utilized and handled in the same manner as described in Example 1.
Procedure: Between 6,000-12,000 cells in each well were seeded into the impedance microplate containing 120 uL settling media with serum. The solution was replaced with media containing no serum to synchronize the cells with respect to physiologic state. […] The CReMS recording of physiologic change was maintained continuously from when the cells were first seeded on the microplate through complete cellular response, which was between 48-72 hours. The test was performed at 37° C., 5% CO2 and at 75% relative humidity.
Experiment [3] relates to Patient B4 cells (HER2 overexpressing breast cancer). Put plainly: CELx Pathway Shutdown test, impedance biosensor CReMS, EGF stimulation. The class given is cell-based, human. From the text:
(§1) CReM and microplate: A 4″×6″, 96-well impedance microplate was placed into a Roche Applied Science (Indianapolis, Ind.) xCELLigence SP impedance biosensor designed to maintain constant voltage while measuring simultaneously the impedance of every well. The change in impedance for a particular well is proportional to the number of cells and type of attachment the cells have with the impedance microplate. Changes in impedance indicate a response to perturbation of these small cell populations.
(§2) Cells: Cells from Patient B1 and B4 were utilized. […] Prior to addition to the impedance microplate, the cells were removed from their growth container with versene, counted, and re-suspended in media without serum or other growth factors.
(§3) Buffers and reagents: Standard media, serum, antibiotics (e.g. penicillin, streptomycin), and other buffers were purchased and used as delivered from ATCC (Manassas, Va., USA) or Life Technologies (Grand Island, N.Y.). Additional growth factor (mature human EGF ca6KDa) was purchased from R&D Systems (Minneapolis, Minn.) and prepared in buffered cell media without growth factors or serum.
(§4) Procedure: Between 6,000-12,000 cells in each well were seeded onto the impedance microplate containing 120 uL standard media with serum. The solution was replaced with media containing no serum to synchronize the cells with respect to physiologic state and pathway stimulation. Twenty microliters of drugs were added to the no-serum media two hours in advance of pathway stimulation.

Experiment [4] relates to Patient B1 cells (HER2 overexpressing breast cancer). The experiment is described as above. The class given is cell-based, human.
Text: as §1, §2, §3, §4

The conditions of experiment [5]: cited from earlier work.
Experiment [6] has as its system Patient B2 breast cancer cells. The experiment is described as follows: CELx Anti-Proliferative test, impedance biosensor CReMS. It is filed as cell-based, human. The procedure:
(§5) The physiologic change of the B1 and B2 cells during the test was measured with an impedance biosensor CReMS and the output from the CReMS is recorded in FIGS. 2A and 2B. The comparison of the CELx test results and the third party clinical reference is recorded in FIG. 2C.
(§6) CReMS, microplate, reagents, and buffers: The CReMS, microplate, reagents, and buffers used in Example 1 are the same as those employed in Example 2, except for the therapeutic agent tested. […] Paclitaxel was purchased from Selleck Chemicals (TX, USA).
(§7) Cells: Breast Cancer cells from Patients B1 and B2 were utilized and handled in the same manner as described in Example 1.
(§8) Procedure: Between 6,000-12,000 cells in each well were seeded onto the impedance microplate containing 120 uL settling media with serum. […] The CReMS recording of physiologic change was maintained continuously from when the cells were first seeded on the microplate through complete cellular response, which was between 48-72 hours. The test was performed at 37° C., 5% CO2 and at 75% relative humidity.

In experiment [7] the test system is Patient B1 breast cancer cells. The description is as above. The class given is cell-based, human. The procedure:
as §5, §6, §7, §8

On to `COc1cc2ncnc(Nc3ccc(F)c(Cl)c3)c2cc1OCCCN1CCOCC1` [gefitinib], for which, in experiment [1], the “response in the CReMS testing” value was “did not show a response”.
`CCc1c2c(nc3ccc(OC(=O)N4CCC(N5CCCCC5)CC4)cc13)-c1cc3c(c(=O)n1C2)COC(=O)[C@]3(O)CC` [irinotecan, Irinotecan]: the “responsiveness to the individual drug” value in experiment [2] is “responsive”.
As for `CS(=O)(=O)CCNCc1ccc(-c2ccc3ncnc(Nc4ccc(OCc5cccc(F)c5)c(Cl)c4)c3c2)o1` [lapatinib, Lapatinib], the entries for the “CELx test prediction of patient response” value in experiment [3] and in experiment [4] (Patient B1) were “would respond” and “will respond”, respectively. The “change (decrease) of cell index of test cells after drug” value in experiment [4] (Patient B1 cells, pathway stimulated with receptor ligand (EGF), vs stimulated cells without drug) is “over 50%”. Further, the “patient responsiveness recorded by clinical reference standard” value in experiment [5] (Patient B1) and in experiment [5] (Patient B4) was “responsive” in each case.
`CC(=O)O[C@H]1C(=O)[C@@]2(C)[C@H]([C@H](OC(=O)c3ccccc3)[C@]3(O)C[C@H](OC(=O)[C@H](O)[C@@H](NC(=O)c4ccccc4)c4ccccc4)C(C)=C1C3(C)C)[C@]1(OC(C)=O)CO[C@@H]1C[C@@H]2O` [paclitaxel, Paclitaxel]: the “CELx test prediction of patient response” value in experiment [6] (Patient B2) and in experiment [7] (Patient B1) was “will respond” in each case. In addition, the “time after which the CReM output reverses (test cells begin proliferating, no longer responsive)” value in experiment [6] (Patient B2 cells) is recorded as “roughly 24 hours”. The “responsiveness of test cells (decrease in CReM output compared to control cells)” value was “initial responsiveness” in experiment [6] (Patient B2 cells, continuous recording 48-72 hours); “immediate and continuous responsiveness” in experiment [7] (Patient B1 cells, continuous recording 48-72 hours).
